Assays:
NCI-H226 = test: Growth inhibition of human NCI-H226 cells assessed as cell growth at 10 uM incubated for 48 hrs by sulforhodamine B assay relative to control; assay type: functional; conditions: NCI-H226, 48 h, read-out: Activity
TK-10 = test: Growth inhibition of human TK10 cells assessed as cell growth at 10 uM incubated for 48 hrs by sulforhodamine B assay relative to control; assay type: functional; conditions: TK-10, 48 h, read-out: Activity
HOP-62 = test: Growth inhibition of human HOP62 cells assessed as cell growth at 10 uM incubated for 48 hrs by sulforhodamine B assay relative to control; assay type: functional; conditions: HOP-62, 48 h, read-out: Activity
Hs-578T = test: Growth inhibition of human Hs 578T cells assessed as cell growth at 10 uM incubated for 48 hrs by sulforhodamine B assay relative to control; assay type: functional; conditions: read-out: Activity
SK-MEL-28 = test: Growth inhibition of human SK-MEL-28 cells assessed as cell growth at 10 uM incubated for 48 hrs by sulforhodamine B assay relative to control; assay type: functional; conditions: SK-MEL-28, 48 h, read-out: Activity
BT-549 = test: Growth inhibition of human BT549 cells assessed as cell growth at 10 uM incubated for 48 hrs by sulforhodamine B assay relative to control; assay type: functional; conditions: BT-549, 48 h, read-out: Activity
A498 = test: Growth inhibition of human A498 cells assessed as cell growth at 10 uM incubated for 48 hrs by sulforhodamine B assay relative to control; assay type: functional; conditions: A498, 48 h, read-out: Activity
U-251 = test: Growth inhibition of human U251 cells assessed as cell growth at 10 uM incubated for 48 hrs by sulforhodamine B assay relative to control; assay type: functional; conditions: U-251, 48 h, read-out: Activity
KM12 = test: Growth inhibition of human KM12 cells assessed as cell growth at 10 uM incubated for 48 hrs by sulforhodamine B assay relative to control; assay type: functional; conditions: KM12, 48 h, read-out: Activity
DU-145 = test: Growth inhibition of human DU145 cells assessed as cell growth at 10 uM incubated for 48 hrs by sulforhodamine B assay relative to control; assay type: functional; conditions: DU-145, 48 h, read-out: Activity
RXF 393 = test: Growth inhibition of human RXF393 cells assessed as cell growth at 10 uM incubated for 48 hrs by sulforhodamine B assay relative to control; assay type: functional; conditions: RXF 393, 48 h, read-out: Activity
SK-OV-3 = test: Growth inhibition of human SKOV3 cells assessed as cell growth at 10 uM incubated for 48 hrs by sulforhodamine B assay relative to control; assay type: functional; conditions: SK-OV-3, 48 h, read-out: Activity
CAKI-1 = test: Growth inhibition of human Caki1 cells assessed as cell growth at 10 uM incubated for 48 hrs by sulforhodamine B assay relative to control; assay type: functional; conditions: CAKI-1, 48 h, read-out: Activity
K562 = test: Growth inhibition of human K562 cells assessed as cell growth at 10 uM incubated for 48 hrs by sulforhodamine B assay relative to control; assay type: functional; conditions: K562, 48 h, read-out: Activity
[1] = biological target: Epidermal growth factor receptor (Homo sapiens, UniProt P00533); test: Inhibition of recombinant human C-terminal His/N-terminal GST-tagged EGFR (668 to 1210 residues) expressed in baculovirus infected Sf9 cells at 10 uM using biotin-labeled poly[Glu:Tyr] (4:1) as substrate after 30 mins by Kinase-Glo plus luminescence assay relative to control
Chain of Epidermal growth factor receptor (P00533 whole entry, the tested form may be a part): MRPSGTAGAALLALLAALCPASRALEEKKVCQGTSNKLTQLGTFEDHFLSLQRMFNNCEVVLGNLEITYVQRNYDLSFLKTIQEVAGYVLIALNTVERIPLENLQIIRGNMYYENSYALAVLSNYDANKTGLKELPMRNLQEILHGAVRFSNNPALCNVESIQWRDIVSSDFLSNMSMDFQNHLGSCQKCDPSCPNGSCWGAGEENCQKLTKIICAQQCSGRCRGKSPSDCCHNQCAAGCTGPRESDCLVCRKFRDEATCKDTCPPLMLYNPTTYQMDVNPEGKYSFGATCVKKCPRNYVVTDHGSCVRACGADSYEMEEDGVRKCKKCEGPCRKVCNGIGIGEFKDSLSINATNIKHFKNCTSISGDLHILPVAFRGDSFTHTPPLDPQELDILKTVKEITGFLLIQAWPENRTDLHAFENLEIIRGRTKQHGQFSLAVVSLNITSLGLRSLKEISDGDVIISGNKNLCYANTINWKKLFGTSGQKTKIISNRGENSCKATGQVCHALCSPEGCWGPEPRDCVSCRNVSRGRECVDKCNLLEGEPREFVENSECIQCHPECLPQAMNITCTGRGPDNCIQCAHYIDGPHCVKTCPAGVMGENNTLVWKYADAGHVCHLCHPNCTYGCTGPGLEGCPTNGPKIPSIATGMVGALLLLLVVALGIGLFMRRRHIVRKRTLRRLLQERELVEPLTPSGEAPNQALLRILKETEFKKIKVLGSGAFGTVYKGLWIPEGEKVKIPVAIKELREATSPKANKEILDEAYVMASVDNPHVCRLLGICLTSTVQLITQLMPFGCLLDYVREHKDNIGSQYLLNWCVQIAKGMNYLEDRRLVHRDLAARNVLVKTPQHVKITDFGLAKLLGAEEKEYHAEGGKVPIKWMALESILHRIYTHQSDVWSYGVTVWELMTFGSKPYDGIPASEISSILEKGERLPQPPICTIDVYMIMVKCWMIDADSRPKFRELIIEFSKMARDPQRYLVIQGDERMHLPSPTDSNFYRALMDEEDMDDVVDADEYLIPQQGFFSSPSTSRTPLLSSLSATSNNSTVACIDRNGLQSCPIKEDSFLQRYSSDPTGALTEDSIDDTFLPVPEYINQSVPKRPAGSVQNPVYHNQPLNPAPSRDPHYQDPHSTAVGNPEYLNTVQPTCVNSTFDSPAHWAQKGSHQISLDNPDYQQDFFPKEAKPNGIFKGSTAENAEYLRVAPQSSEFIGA

A549 = test: Growth inhibition of human A549/ATCC cells assessed as cell growth at 10 uM incubated for 48 hrs by sulforhodamine B assay relative to control; assay type: functional; conditions: A549, 48 h, read-out: Activity
MDA-MB-231 = test: Growth inhibition of human MDA-MB-231 cells assessed as cell growth at 10 uM incubated for 48 hrs by sulforhodamine B assay relative to control; assay type: functional; conditions: MDA-MB-231, 48 h, read-out: Activity
SF-268 = test: Growth inhibition of human SF268 cells assessed as cell growth at 10 uM incubated for 48 hrs by sulforhodamine B assay relative to control; assay type: functional; conditions: SF-268, 48 h, read-out: Activity
HT-29 = test: Growth inhibition of human HT-29 cells assessed as cell growth at 10 uM incubated for 48 hrs by sulforhodamine B assay relative to control; assay type: functional; conditions: HT-29, 48 h, read-out: Activity
SK-MEL-5 = test: Growth inhibition of human SK-MEL-5 cells assessed as cell growth at 10 uM incubated for 48 hrs by sulforhodamine B assay relative to control; assay type: functional; conditions: SK-MEL-5, 48 h, read-out: Activity
OVCAR-5 = test: Growth inhibition of human OVCAR5 cells assessed as cell growth at 10 uM incubated for 48 hrs by sulforhodamine B assay relative to control; assay type: functional; conditions: OVCAR-5, 48 h, read-out: Activity
NCI-H460 = test: Growth inhibition of human NCI-H460 cells assessed as cell growth at 10 uM incubated for 48 hrs by sulforhodamine B assay relative to control; assay type: functional; conditions: NCI-H460, 48 h, read-out: Activity
RPMI-8226 = test: Growth inhibition of human RPMI8226 cells assessed as cell growth at 10 uM incubated for 48 hrs by sulforhodamine B assay relative to control; assay type: functional; conditions: RPMI-8226, 48 h, read-out: Activity
NCI-H23 = test: Growth inhibition of human NCI-H23 cells assessed as cell growth at 10 uM incubated for 48 hrs by sulforhodamine B assay relative to control; assay type: functional; conditions: NCI-H23, 48 h, read-out: Activity
MCF7 = test: Growth inhibition of human MCF7 cells assessed as cell growth at 10 uM incubated for 48 hrs by sulforhodamine B assay relative to control; assay type: functional; conditions: MCF7, 48 h, read-out: Activity
CCRF-CEM = test: Growth inhibition of human CCRF-CEM cells assessed as cell growth at 10 uM incubated for 48 hrs by sulforhodamine B assay relative to control; assay type: functional; conditions: read-out: Activity
COLO 205 = test: Growth inhibition of human COLO205 cells assessed as cell growth at 10 uM incubated for 48 hrs by sulforhodamine B assay relative to control; assay type: functional; conditions: COLO 205, 48 h, read-out: Activity
HCC 2998 = test: Growth inhibition of human HCC2998 cells assessed as cell growth at 10 uM incubated for 48 hrs by sulforhodamine B assay relative to control; assay type: functional; conditions: HCC 2998, 48 h, read-out: Activity
SNB-75 = test: Growth inhibition of human SNB75 cells assessed as cell growth at 10 uM incubated for 48 hrs by sulforhodamine B assay relative to control; assay type: functional; conditions: SNB-75, 48 h, read-out: Activity
SF-295 = test: Growth inhibition of human SF295 cells assessed as cell growth at 10 uM incubated for 48 hrs by sulforhodamine B assay relative to control; assay type: functional; conditions: SF-295, 48 h, read-out: Activity
EKVX = test: Growth inhibition of human EKVX cells assessed as cell growth at 10 uM incubated for 48 hrs by sulforhodamine B assay relative to control; assay type: functional; conditions: read-out: Activity
786-0 = test: Growth inhibition of human 786-0 cells assessed as cell growth at 10 uM incubated for 48 hrs by sulforhodamine B assay relative to control; assay type: functional; conditions: 786-0, 48 h, read-out: Activity

Structure (SMILES)	growth at 10 µM (NCI-H226) [%]	growth at 10 µM (TK-10) [%]	growth at 10 µM (HOP-62) [%]	growth at 10 µM (Hs-578T) [%]	growth at 10 µM (SK-MEL-28) [%]	growth at 10 µM (BT-549) [%]	growth at 10 µM (A498) [%]	growth at 10 µM (U-251) [%]	growth at 10 µM (KM12) [%]	growth at 10 µM (DU-145) [%]	growth at 10 µM (RXF 393) [%]	growth at 10 µM (SK-OV-3) [%]	growth at 10 µM (CAKI-1) [%]	inhibition [1] [%]	growth at 10 µM (A549) [%]	growth at 10 µM (MDA-MB-231) [%]	growth at 10 µM (SF-268) [%]	growth at 10 µM (HT-29) [%]	growth at 10 µM (SK-MEL-5) [%]	growth at 10 µM (OVCAR-5) [%]	other results
Cc1cccc(Nc2ncnc3oc(C)c(C(=O)NCCN4CCOCC4)c23)c1	94.9	98.7	93.1	88.5	100	90.7	68.9	105	94.6	99.4	86.3	111	90.2	30	102	81.8	93.3	104	96.9	81.8	growth at 10 µM (K562): 98.3%; growth at 10 µM (NCI-H460): 105%; growth at 10 µM (RPMI-8226): 89.5%; growth at 10 µM (NCI-H23): 92.5%; growth at 10 µM (MCF7): 96.2%; growth at 10 µM (CCRF-CEM): 99.7%; growth at 10 µM (COLO 205): 101%; growth at 10 µM (HCC 2998): 97.1%; growth at 10 µM (SNB-75): 82.4%; growth at 10 µM (SF-295): 94%; growth at 10 µM (EKVX): 92.6%; growth at 10 µM (786-0): 92.4%
CCOC(=O)c1c(C)oc2ncnc(Nc3ccc(F)c(Cl)c3)c12	94.6	114	101	97	110	101	87.4	91.8	104	103	101	90.7	106	10	86.9	101	97.6	92.8	94.5	112	growth at 10 µM (K562): 93.8%; growth at 10 µM (NCI-H460): 106%; growth at 10 µM (RPMI-8226): 101%; growth at 10 µM (NCI-H23): 88%; growth at 10 µM (MCF7): 104%; growth at 10 µM (COLO 205): 110%; growth at 10 µM (HCC 2998): 109%; growth at 10 µM (SNB-75): 113%; growth at 10 µM (SF-295): 97%; growth at 10 µM (EKVX): 108%; growth at 10 µM (786-0): 104%
CCOC(=O)c1c(C)oc2ncnc(Nc3ccc(F)cc3)c12	100	96.5	101	96.1	97.5	98.5	80.4	98	97.6	101	99.8	104	97.9	6	99.4	86.8	98.5	95.3	102	91.4	growth at 10 µM (NCI-H460): 100%; growth at 10 µM (RPMI-8226): 103%; growth at 10 µM (NCI-H23): 91.9%; growth at 10 µM (CCRF-CEM): 31.3%; growth at 10 µM (COLO 205): 102%; growth at 10 µM (HCC 2998): 108%; growth at 10 µM (SNB-75): 94.7%; growth at 10 µM (786-0): 93.1%
Cc1oc2ncnc(Nc3cccc(F)c3)c2c1C(=O)NCCO	106	90.1	97.4	103	104	96.3	83	104	97.9	105	109	89.2	90.5	20	91	91.2	101	96.8	102	100	growth at 10 µM (NCI-H460): 105%; growth at 10 µM (RPMI-8226): 106%; growth at 10 µM (NCI-H23): 99.6%; growth at 10 µM (CCRF-CEM): 117%; growth at 10 µM (COLO 205): 111%; growth at 10 µM (HCC 2998): 114%; growth at 10 µM (SNB-75): 92.2%; growth at 10 µM (786-0): 93%

— ChEMBL document CHEMBL4251615, “Discovery of anilino-furo[2,3-d]pyrimidine derivatives as dual inhibitors of EGFR/HER2 tyrosine kinase and their anticancer activity” (Eur J Med Chem, 2018)
